The source of these data is PubChem BioAssay (NCI).

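Test compounds were applied to cells in 96-well plates for 48 hours at 5 doses. TGI marks complete inhibition of growth.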 Bounds are passed on as bounds.

What all share (assay): DTP human tumour cell line panel, 48 h
Assay [1] relates to OVCAR-4 ovarian.
Assay [2] has as its system CAKI-1 renal.
In assay [3] the test system is HCT-15 colon.
For assay [4], the system named is NCI-H460 lung.
The test system of assay [5] is UACC-257 melanoma.
In assay [6] the test system is U251 CNS.
Assay [7] concerns SK-MEL-28 melanoma.
Assay [8] has as its system T-47D breast.
In assay [9] the test system is UACC-62 melanoma.
Assay [10] has as its system OVCAR-5 ovarian.
Assay [11] concerns SK-MEL-2 melanoma.
Assay [12] concerns HCT-116 colon.
The subject of assay [13] is OVCAR-3 ovarian.
Assay [14] deals with RPMI-8226 leukemia.
Assay [15] relates to ACHN renal.
Assay [16] relates to SR leukemia.
Assay [17] concerns OVCAR-8 ovarian.
For assay [18], the system named is HOP-92 NSCLC.
The subject of assay [19] is SF-539 CNS.
In assay [20] the test system is RXF 393 renal.

In general, TGI refers to the concentration at which net growth stops. A higher TGI goes with less potent growth arrest. With `COc1ccc(/C=C2\CCCC(CN(C)C)C2=O)cc1` (centres undefined), the TGI in [1] stood at 4.43 µM; in assay [2] it was 3.15 µM; in assay [3], 1.7 µM; in assay [4], 48.4 µM; in assay [5], 8.96 µM; in assay [6], 3.88 µM. The TGI in assay [7] came to 3.77 µM; in assay [8], 7.72 µM; in [9], 4.13 µM; in assay [10] it was 23.2 µM; in [11] it was 11 µM; in [12], 3.19 µM. Moreover, the TGI was 4.99 µM in assay [13]; 0.433 µM in [14]; 5.86 µM in [15]; 2.42 µM in assay [16]; 26.4 µM in assay [17]; 8.99 µM in [18]. In assay [19], this compound registered a TGI of 31.1 µM.

For the compound `Brc1ccc2[nH]cc(-c3csc(-c4ccccn4)n3)c2c1`, the TGI in assay [1] was > 92.8 µM; in [2], > 94.9 µM; in assay [3] it was > 100 µM; in assay [4], 22.4 µM; in [5], > 85.2 µM; in [6], 36.4 µM. Besides, the TGI in [7] is > 100 µM; in assay [8], > 100 µM; in assay [10] it was > 100 µM; in [11] it was > 100 µM; in assay [12], 50.9 µM; in assay [13] it was > 38 µM. In addition, the TGI in assay [14] was 63.7 µM; in assay [15] it was 23.7 µM; in [16], 43.6 µM; in assay [20] it was 18.7 µM; in assay [17], > 100 µM; in assay [18] it was > 95.8 µM. Also, the concentration for total growth inhibition (TGI) in assay [19] is > 100 µM.

Turning to `COc1ccccc1/C=C/C1=NN(c2cccc(S(=O)(=O)O)c2)C2(C1)SCC(=O)N2c1nc2ccccc2s1` (centres undefined), the concentration for total growth inhibition (TGI) in [1], in assay [2], in [3], in assay [4], in assay [5] and in [6] was > 100 µM throughout. Moreover, the TGI in assay [7] is > 100 µM; in [8], 71.8 µM; in [9], > 100 µM; in assay [10], > 100 µM; in assay [11], > 100 µM; in assay [12], > 100 µM. Further, the TGI in assay [14] was 65.4 µM; in assay [15], > 100 µM; in assay [16], 87.9 µM; in assay [20] it was > 100 µM; in [17] it was > 100 µM; in [18] it was > 100 µM. Also, the TGI in [19] was > 100 µM.

`Nc1ccc(S(=O)(=O)Nc2nnc(S(N)(=O)=O)s2)cc1`: the TGI in assay [1], in assay [2], in assay [3], in assay [4], in assay [6] and in assay [8] was > 100 µM each time. In addition, the TGI in assay [9], in [10], in assay [12], in assay [14], in [15] and in [16] was > 100 µM throughout. Besides, the TGI in assay [20], in assay [18] and in [19] was > 100 µM throughout.

For the compound `O=C1c2c(Cl)c(Cl)c(Cl)c(Cl)c2C(=O)N1CCN(c1c(Cl)ssc1=O)c1c(Cl)ssc1=O`, the TGI is 40.2 µM in assay [1]; 34.7 µM in assay [2]; 41.1 µM in [3]; > 100 µM in assay [4]; 31.5 µM in [5]; > 100 µM in assay [6]. Also, the TGI in assay [7] is > 100 µM; in assay [8] it was 44.5 µM; in assay [9], 44.4 µM; in [10] it was > 100 µM; in [11], 54.3 µM; in [12], 29.9 µM. Also, the TGI was 36.6 µM in assay [13]; 32.9 µM in [15]; 44.7 µM in assay [16]; 34.4 µM in assay [20]; 44.6 µM in assay [17]; 35.5 µM in assay [18]. In assay [19], the TGI is 35.4 µM.

Take `Cc1c2c(c(C)n1-c1ccccc1)C(=O)N(CCCCN1CCN(c3ccccc3)CC1)C2=O`: the TGI in assay [1] was 82.5 µM; in [2] it was > 100 µM; in [3] it was 54.8 µM; in [4], 47.4 µM; in assay [5], 22.2 µM; in assay [6], 84.9 µM. Also, the TGI in [8] was 28.8 µM; in assay [9], 36.8 µM; in assay [10] it was > 100 µM; in [11], 62.6 µM; in assay [12] it was 20.9 µM; in [13] it was 88.5 µM. Further, the concentration for total growth inhibition (TGI) in [14] was 47.3 µM; in assay [15], > 100 µM; in [16] it was 27 µM; in [20] it was > 100 µM; in assay [17] it was 31.4 µM; in assay [18], 46.3 µM. The compound also came in with a TGI in assay [19] of 26.5 µM.

With `CC1CC(C)C(O)C(C2CC(CC(=O)NC3CCCCC3)CC(=O)O2)C1` (centres undefined), the TGI in assay [1], in [2], in [3], in assay [4], in assay [5] and in assay [6] was > 100 µM in each case. In addition, the TGI in [7], in [8], in assay [10], in assay [12], in [13] and in assay [14] was > 100 µM each time. Besides, the total growth inhibition concentration (TGI) in assay [15], in assay [16], in assay [20], in assay [17], in assay [18] and in assay [19] was > 100 µM throughout.

Turning to `Cc1ccc(C2=Nc3cc(C)c(Cl)cc3S(=O)(=O)NN2)cc1`, the TGI in assay [1] is > 100 µM; in assay [2], 75.7 µM; in assay [3], > 100 µM; in assay [4] it was > 100 µM; in assay [5], > 100 µM; in assay [6], > 100 µM. For the same compound, the TGI in assay [7], in [8], in [9], in [12], in assay [13] and in assay [14] was > 100 µM each time. In addition, the concentration for total growth inhibition (TGI) in [15] was > 100 µM; in assay [16] it was 53 µM; in assay [20], > 100 µM; in [17] it was > 100 µM; in [18] it was > 100 µM; in assay [19], > 100 µM.

Regarding `Cc1ccc(-c2nc(C)c(C(=O)Nc3ccc(Cl)cc3)s2)cc1`, the TGI in assay [1] is 49.2 µM; in [2], 40.8 µM; in assay [3] it was > 100 µM; in assay [4], > 100 µM; in [5] it was > 100 µM; in assay [6], 48.8 µM. Moreover, the TGI was > 100 µM in assay [7]; > 100 µM in assay [8]; 45.8 µM in assay [9]; > 100 µM in [10]; > 100 µM in [11]; 41.2 µM in [12]. In addition, the concentration for total growth inhibition (TGI) in assay [13] is 98.6 µM; in [14], > 100 µM; in assay [15], 42 µM; in assay [16] it was > 100 µM; in assay [17] it was 36.9 µM; in assay [18] it was 70.2 µM. The TGI in assay [19] is > 100 µM.

Regarding `NCC(=O)NC1(c2cc3ccccc3s2)CCCCC1`, the TGI in assay [1] is > 100 µM; in assay [2], > 100 µM; in [3], > 100 µM; in [4], > 100 µM; in assay [5], 32.1 µM; in assay [7] it was 39.8 µM. For the same compound, the TGI in assay [8] was > 100 µM; in assay [9], 44.5 µM; in [10], > 100 µM; in assay [12], > 100 µM; in [13], > 100 µM; in assay [14], 45.2 µM. The TGI was 56.9 µM in [15]; 19.2 µM in assay [16]; > 100 µM in [20]; > 100 µM in [17]; 78.1 µM in assay [18]; > 100 µM in [19].

`COc1cc(Cc2cc3c(c(C(=O)O)c2Br)OCO3)cc(OC)c1OC`: the TGI in assay [1], in assay [2], in assay [3], in assay [4], in assay [5] and in assay [6] was > 100 µM each time. Moreover, the TGI in assay [7], in [8], in assay [9], in assay [10], in assay [11] and in [12] was > 100 µM throughout. Besides, the TGI in assay [13] is > 100 µM; in assay [15], > 100 µM; in [16], 89 µM; in assay [17], > 100 µM; in assay [18], > 100 µM; in assay [19], 91.1 µM.

As for `CCOC(=O)c1ccc(Nc2cnc3cc(C(F)(F)F)ccc3n2)cc1`, the TGI in assay [1], in assay [2], in assay [3], in assay [4], in assay [5] and in assay [6] was > 100 µM in each case. The concentration for total growth inhibition (TGI) in assay [7], in assay [8], in [9], in assay [10], in assay [12] and in [13] was > 100 µM in each case. Moreover, the TGI in assay [14], in assay [15], in [16], in [17], in assay [18] and in assay [19] was > 100 µM each time.
